# Reference: patent US12544382B2, “2, 4, 6-tri-substituted pyrimidine compound as ATR kinase inhibitor” (BEIJING TIDE PHARMACEUTICAL CO., LTD., priority 2019, dated 2026)
# pIC50: −log10 of the molar value.
# How the values were obtained:
# ATR kinase = ATR kinase (Homo sapiens (Human), UniProt Q13535); test: ATR kinase activity assay (time-resolved fluorescence, p53 substrate phosphorylation); assay type: biochemical
# Method: Biotinylated protein derived from p53 (Eurofins, art. No.: 14-952) was phosphorylated with ATR kinase. The amount of phosphorylated protein was determined by time-resolved fluorescence in this assay. The amount of phosphorylated protein was detected by anti-p53-phospho-(serine 15)-K-specific antibody (Cisbio, art. No.: 61GSTDLA) and d2 labeled anti-GST antibody (Cisbio, art. No. 61P08KAE). Before the experiment, the following working solution was prepared as required: 1× reaction buffer (20 mM HEPES PH8.0, 1% glycerol, 0.01% Brij-35), dilution buffer (20 mM HEPES PH8.0, 1% glycerol, 0.01% Brij-35, 5 mM DTT and 1% BSA), stop solution (20 mM HEPES PH8.0, 1% glycerol, 0.01% Brij-35, 250 mM EDTA), detection buffer (50 mM HEPES pH7.0, 150 mM NaCl, 267 mM KF, 0.1% sodium cholate, 0.01% Tween-20, 0.0125% sodium azide). The reagents used above are purchased from Sigma or Invitrogen, except for those where the manufacturer was mentioned.
# Operations are as follows:
# 4× gradient dilution of compound solutions was prepared with 1× reaction buffer to obtain 9 compound solutions of different concentrations, and 2.5 μL 4× gradient dilution of compound solutions was added to a 384-well analysis plate (784075, Greiner). 4× p53 substrate working solution (40 nM) was prepared with 1× reaction buffer, and 2.5 μL 4× p53 substrate working solution was added to the 384-well analysis plate. 4×ATR/ATRIP working solution (12.8 ng/μL) was prepared with dilution buffer, and 2.5 μL 4×pATR/ATRIP working solution was added to the 384-well analysis plate. 4×ATP working solution (2 mM) was prepared with deionized water, 2.5 μL 4×ATP working solution was added to the 384-well analysis plate, and incubated at room temperature in dark for 30 minutes. 5 μL stop solution was added to the 384 analysis plate. Finally, 5 μL test mixture (0.084 ng/μL Anti-phospho-p53(ser15)-K and 5 ng/μL Anti-GST-d2) was added to the 384 well analysis plate, incubated overnight at room temperature, and the fluorescence signal was detected with ENVISION (Perkinelmer) instrument (excitation wavelength: 320 nm, emission wavelength: 665 nm and 615 nm). The inhibition rate in each well was calculated by the fluorescence intensity value of each hole: ER (Emission Ratio)=(Fluorescence intensity at 665 nm/Fluorescence intensity at 615 nm); inhibition rate=(ER positive-ER test compound)/(ER positive-ER negative)×100%, the IC50 value of compounds were calculated by standard parameter fitting software (GraphPad Prism 6.0).
# [1] = test system: TOV21G (ovarian cancer) cells; test: In vitro cell proliferation inhibition assay (CellTiter-Glo), TOV21G; assay type: cell-based, human; settings: 120 hours
# Method: (§1) By detecting the effect of compound on cell activity in vitro in the tumor cell lines TOV21G (ovarian cancer) and MV4-11 (leukemia), the effect of compound inhibiting cell proliferation was studied in this assay.
# (§2) TOV21G cells and MV4-11 cells were purchased from American Type Culture Collection (ATCC).
# TOV21G cells were cultured in MCDB105/M199 medium (containing 15% […]), and used for testing when the cell confluence reaches 85% or more. Each well of a 96-well culture plate was inoculated with about 1000 cells, cultured for 24 hours, and treated with different concentrations (0-10 μM) of compound solution to be tested in triplex. Blank wells (contains medium only) and control wells (seeded cells was not treated with drug) were set. Cells were cultured for 120 hours, 40 μL Cell Titer-Glo solution (Promega, #G7573) were added to each well, incubated with shaking for 20 min in the dark, 100 μL solution was transferred from each well to a 96-well white plate (Corning, #3917), and the luminescence value was read by Biotek Synergy H1 multifunctional microplate reader.
# MV4-11 (leukemia) cells = test: In vitro cell proliferation inhibition assay (CellTiter-Glo), MV4-11; assay type: cell-based, human; settings: MV4-11 cells
# Method: as §1, §2
# MV-4-11 cells were cultured in IMDM medium (containing 20% FBS), each well of a 96-well culture plate was inoculated with about 10000 cells, and treated with different concentrations (0-10 μM) of compounds to be tested in triplex. Blank wells (containing medium only) and control wells (inoculated with cells but not treated with drug) were set. Cells were cultured for 120 hours, 40 μL Cell Titer-Glo solution was added to each well, incubated with shaking for 20 min in the dark, 100 μL solution was transferred from each well to a 96-well white plate, and the luminescence value was read by Biotek Synergy H1 multifunctional microplate reader. Inhibition rate (%)=100%×(control well−test well)/(control well−blank well)
# Sequence of ATR kinase (Q13535 whole entry): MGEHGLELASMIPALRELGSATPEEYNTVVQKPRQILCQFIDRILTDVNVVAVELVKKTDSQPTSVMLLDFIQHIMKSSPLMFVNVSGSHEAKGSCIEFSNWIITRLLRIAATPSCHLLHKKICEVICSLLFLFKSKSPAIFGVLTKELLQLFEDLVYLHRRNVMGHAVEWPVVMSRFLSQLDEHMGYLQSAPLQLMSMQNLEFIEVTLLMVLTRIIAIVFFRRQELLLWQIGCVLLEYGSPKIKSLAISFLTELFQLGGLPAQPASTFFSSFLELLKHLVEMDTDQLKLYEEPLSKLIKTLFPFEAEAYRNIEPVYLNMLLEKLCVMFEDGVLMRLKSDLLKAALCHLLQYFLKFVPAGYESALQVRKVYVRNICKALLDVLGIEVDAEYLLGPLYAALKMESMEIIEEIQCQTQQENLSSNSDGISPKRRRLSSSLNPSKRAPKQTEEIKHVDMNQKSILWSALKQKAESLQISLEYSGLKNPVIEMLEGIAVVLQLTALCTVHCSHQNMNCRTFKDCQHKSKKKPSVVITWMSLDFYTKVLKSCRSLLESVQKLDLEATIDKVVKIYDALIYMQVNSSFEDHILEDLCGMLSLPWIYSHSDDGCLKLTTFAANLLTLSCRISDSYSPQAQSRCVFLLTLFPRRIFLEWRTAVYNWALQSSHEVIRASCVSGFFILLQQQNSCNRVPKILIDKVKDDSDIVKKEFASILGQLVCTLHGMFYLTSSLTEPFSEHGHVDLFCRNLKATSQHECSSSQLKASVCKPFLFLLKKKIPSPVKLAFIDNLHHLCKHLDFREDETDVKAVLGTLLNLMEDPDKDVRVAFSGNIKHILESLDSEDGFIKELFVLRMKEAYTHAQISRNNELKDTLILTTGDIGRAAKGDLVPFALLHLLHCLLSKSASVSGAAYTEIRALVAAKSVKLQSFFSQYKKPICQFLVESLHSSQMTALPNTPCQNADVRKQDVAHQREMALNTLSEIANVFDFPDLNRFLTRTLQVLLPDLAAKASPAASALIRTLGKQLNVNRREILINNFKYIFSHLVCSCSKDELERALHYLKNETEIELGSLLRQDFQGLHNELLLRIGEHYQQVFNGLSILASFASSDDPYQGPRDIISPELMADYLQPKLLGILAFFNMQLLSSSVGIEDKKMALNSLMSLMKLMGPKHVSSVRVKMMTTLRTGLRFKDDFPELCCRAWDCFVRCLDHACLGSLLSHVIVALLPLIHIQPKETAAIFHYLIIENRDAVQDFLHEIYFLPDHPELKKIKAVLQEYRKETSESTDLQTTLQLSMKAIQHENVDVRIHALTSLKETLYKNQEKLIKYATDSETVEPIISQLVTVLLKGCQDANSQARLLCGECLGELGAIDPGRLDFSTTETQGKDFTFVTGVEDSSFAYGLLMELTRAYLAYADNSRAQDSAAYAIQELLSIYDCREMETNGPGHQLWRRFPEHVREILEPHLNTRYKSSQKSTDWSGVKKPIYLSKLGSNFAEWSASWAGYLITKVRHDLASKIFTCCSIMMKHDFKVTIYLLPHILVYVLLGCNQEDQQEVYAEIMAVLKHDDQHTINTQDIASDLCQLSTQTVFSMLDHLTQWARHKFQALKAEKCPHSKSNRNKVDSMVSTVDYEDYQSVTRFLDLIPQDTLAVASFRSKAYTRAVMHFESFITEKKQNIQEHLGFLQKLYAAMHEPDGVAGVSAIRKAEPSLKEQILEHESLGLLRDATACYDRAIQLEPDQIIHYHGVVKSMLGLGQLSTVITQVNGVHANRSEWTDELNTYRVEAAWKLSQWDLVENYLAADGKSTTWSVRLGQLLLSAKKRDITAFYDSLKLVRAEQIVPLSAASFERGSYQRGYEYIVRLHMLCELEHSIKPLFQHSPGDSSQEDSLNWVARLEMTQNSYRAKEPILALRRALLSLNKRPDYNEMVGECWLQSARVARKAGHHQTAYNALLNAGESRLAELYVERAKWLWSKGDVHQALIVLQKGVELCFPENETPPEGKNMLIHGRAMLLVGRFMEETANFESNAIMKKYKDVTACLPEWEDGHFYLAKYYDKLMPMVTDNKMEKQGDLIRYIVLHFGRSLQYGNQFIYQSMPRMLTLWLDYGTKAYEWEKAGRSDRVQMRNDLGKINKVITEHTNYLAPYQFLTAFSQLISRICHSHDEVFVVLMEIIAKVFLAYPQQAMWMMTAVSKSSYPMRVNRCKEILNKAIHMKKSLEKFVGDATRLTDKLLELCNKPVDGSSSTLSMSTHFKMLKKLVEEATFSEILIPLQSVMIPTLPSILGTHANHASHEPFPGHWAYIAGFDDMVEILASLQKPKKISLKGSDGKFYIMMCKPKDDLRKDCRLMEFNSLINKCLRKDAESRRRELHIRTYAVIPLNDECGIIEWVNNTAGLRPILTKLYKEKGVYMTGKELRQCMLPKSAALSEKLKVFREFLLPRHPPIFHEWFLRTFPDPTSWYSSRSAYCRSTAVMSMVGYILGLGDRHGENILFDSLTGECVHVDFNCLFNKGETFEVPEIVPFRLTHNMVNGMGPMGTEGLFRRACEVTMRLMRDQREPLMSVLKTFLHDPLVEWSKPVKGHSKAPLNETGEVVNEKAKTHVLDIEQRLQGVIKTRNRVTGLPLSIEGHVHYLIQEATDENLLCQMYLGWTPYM
# Sequence of ATR kinase (Q8WXE1 whole entry partner): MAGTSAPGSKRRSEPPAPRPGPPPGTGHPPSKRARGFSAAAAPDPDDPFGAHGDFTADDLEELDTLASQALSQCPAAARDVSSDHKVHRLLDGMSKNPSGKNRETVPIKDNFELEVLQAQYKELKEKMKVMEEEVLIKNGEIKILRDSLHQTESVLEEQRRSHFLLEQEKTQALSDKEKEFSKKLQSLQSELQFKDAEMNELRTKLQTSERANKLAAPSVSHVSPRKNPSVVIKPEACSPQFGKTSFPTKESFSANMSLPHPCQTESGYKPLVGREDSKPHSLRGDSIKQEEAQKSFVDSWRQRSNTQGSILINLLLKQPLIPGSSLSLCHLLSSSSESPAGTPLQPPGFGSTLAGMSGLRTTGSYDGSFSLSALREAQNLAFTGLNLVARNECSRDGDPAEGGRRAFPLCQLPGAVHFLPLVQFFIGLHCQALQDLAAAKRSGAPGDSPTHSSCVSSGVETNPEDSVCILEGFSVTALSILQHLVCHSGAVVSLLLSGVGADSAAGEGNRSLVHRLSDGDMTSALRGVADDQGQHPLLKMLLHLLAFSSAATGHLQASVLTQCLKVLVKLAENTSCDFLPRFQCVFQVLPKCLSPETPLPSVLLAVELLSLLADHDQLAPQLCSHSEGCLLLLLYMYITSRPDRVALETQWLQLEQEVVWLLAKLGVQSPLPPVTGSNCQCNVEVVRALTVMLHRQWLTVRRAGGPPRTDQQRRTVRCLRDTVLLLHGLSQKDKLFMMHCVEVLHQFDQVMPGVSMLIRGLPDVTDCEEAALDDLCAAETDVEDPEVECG
structure (smiles),measurement,setting,value
"Cc1c(-c2cc(N3CCOC[C@H]3C)nc(-c3ccnc4[nH]ccc34)n2)c(C(F)(F)F)nn1C1CCCNC1 (single isomer, unassigned) [Compound D13]",pIC50,ATR kinase,> 9.00
same,pIC50,[1]; Homo sapiens,6.10
same,pIC50,"MV4-11 (leukemia) cells; Homo sapiens, MV4-11, 120 h",6.60
Cc1c(-c2cc(N3CCOC[C@H]3C)nc(-c3ccnc4[nH]ccc34)n2)c(C(F)(F)F)nn1C1CCNCC1 [Compound D2],pIC50,ATR kinase,8.22
same,pIC50,[1]; Homo sapiens,6.04
same,pIC50,"MV4-11 (leukemia) cells; Homo sapiens, MV4-11, 120 h",6.11
COc1cc(-c2nc(-c3c(C)nn(C4CCNCC4)c3C(F)(F)F)cc(N3CCOC[C@H]3C)n2)c2cc[nH]c2n1 [Compound D3],pIC50,ATR kinase,7.51
same,pIC50,[1],6.55
same,pIC50,MV4-11 (leukemia) cells; 120 hours,6.54
Cc1nn(C2CCN(C)CC2)c(C)c1-c1cc(N2CCOC[C@H]2C)nc(-c2ccnc3[nH]ccc23)n1 [Compound D4],pIC50,ATR kinase,8.22
same,pIC50,[1],6.48
same,pIC50,MV4-11 (leukemia) cells; 120 hours,6.72
Cc1nn(C2CCNCC2)c(C(F)(F)F)c1-c1cc(N2CCOC[C@H]2C)nc(-n2c(N)nc3ccccc32)n1 [Compound D6],pIC50,ATR kinase,> 9.00
same,pIC50,[1]; Homo sapiens,6.62
same,pIC50,"MV4-11 (leukemia) cells; Homo sapiens, MV4-11, 120 h",6.77
Cc1nn(C2CCNCC2)c(C(F)(F)F)c1-c1cc(N2CCOC[C@H]2C)nc(-n2c(N)nc3cc(F)ccc32)n1 [Compound D7],pIC50,ATR kinase,9.00
same,pIC50,[1]; Homo sapiens,6.34
same,pIC50,"MV4-11 (leukemia) cells; Homo sapiens, MV4-11, 120 h",6.51
CC(=O)Nc1nc2ccccc2n1-c1nc(-c2c(C)nn(C3CCNCC3)c2C(F)(F)F)cc(N2CCOC[C@H]2C)n1 [Compound D8],pIC50,ATR kinase,8.52
same,pIC50,[1]; Homo sapiens,6.37
same,pIC50,"MV4-11 (leukemia) cells; Homo sapiens, MV4-11, 120 h",6.66
CNc1nc2cc(F)ccc2n1-c1nc(-c2c(C)nn(C3CCNCC3)c2C(F)(F)F)cc(N2CCOC[C@H]2C)n1 [Compound D10],pIC50,ATR kinase,8.52
same,pIC50,[1]; Homo sapiens,6.42
same,pIC50,"MV4-11 (leukemia) cells; Homo sapiens, MV4-11, 120 h",6.48
Cc1nn(C2CCNCC2)c(C(F)(F)F)c1-c1nc(-c2ccnc3[nH]ccc23)nc(N2CCOC[C@H]2C)c1F [Compound D11],pIC50,ATR kinase,8.10
same,pIC50,[1],6.19
same,pIC50,MV4-11 (leukemia) cells; 120 hours,6.43
Cc1c(-c2cc(N3CCOC[C@H]3C)nc(-c3ccnc4[nH]ccc34)n2)c(C(F)(F)F)nn1C1CCCNC1 (stereo partly drawn) [Compound D12],pIC50,ATR kinase,8.52
same,pIC50,[1]; Homo sapiens,6.55
same,pIC50,"MV4-11 (leukemia) cells; Homo sapiens, MV4-11, 120 h",6.54
COc1c(-c2cc(N3CCOC[C@H]3C)nc(-c3ccnc4[nH]ccc34)n2)c(C(F)(F)F)nn1C1CCN(C)CC1 [Compound D14],pIC50,ATR kinase,7.55
same,pIC50,[1]; Homo sapiens,5.92
same,pIC50,"MV4-11 (leukemia) cells; Homo sapiens, MV4-11, 120 h",6.09
CNc1nc2cc(F)ccc2n1-c1nc(-c2c(C(F)(F)F)nn(C3CCNCC3)c2C)cc(N2CCOC[C@H]2C)n1 [Compound D16],pIC50,ATR kinase,7.09
same,pIC50,[1],5.98
same,pIC50,MV4-11 (leukemia) cells; 120 hours,5.87
Cc1c(-c2cc(N3CCOC[C@H]3C)nc(-c3cccc4[nH]ccc34)n2)c(C(F)(F)F)nn1C1CCNCC1 [Compound D18],pIC50,ATR kinase,> 9.00
same,pIC50,[1]; Homo sapiens,6.29
same,pIC50,"MV4-11 (leukemia) cells; Homo sapiens, MV4-11, 120 h",6.55
Cc1nn(C2CCNCC2)c(C(F)(F)F)c1-c1cc(N2CCOC[C@H]2C)nc(-c2cncc3[nH]ccc23)n1 [Compound D19],pIC50,ATR kinase,9.00
same,pIC50,[1]; Homo sapiens,6.96
same,pIC50,"MV4-11 (leukemia) cells; Homo sapiens, MV4-11, 120 h",7.10
Cc1c(-c2cc(N3CCOC[C@H]3C)nc(-c3cncc4[nH]ccc34)n2)c(C(F)(F)F)nn1C1CCNCC1 [Compound D20],pIC50,ATR kinase,> 9.00
same,pIC50,[1]; Homo sapiens,6.80
same,pIC50,"MV4-11 (leukemia) cells; Homo sapiens, MV4-11, 120 h",7.15
Cc1nn(C2CCNCC2)c(C(F)(F)F)c1-c1cc(N2CCOC[C@H]2C)nc(-n2c(NC(=O)C3CC3)nc3ccccc32)n1 [Compound D21],pIC50,ATR kinase,8.70
same,pIC50,[1]; Homo sapiens,6.85
same,pIC50,"MV4-11 (leukemia) cells; Homo sapiens, MV4-11, 120 h",6.72
CNc1nc2ccc(F)cc2n1-c1nc(-c2c(C)nn(C3CCNCC3)c2C(F)(F)F)cc(N2CCOC[C@H]2C)n1 [Compound D22],pIC50,ATR kinase,7.80
same,pIC50,[1]; Homo sapiens,6.07
same,pIC50,"MV4-11 (leukemia) cells; Homo sapiens, MV4-11, 120 h",6.04
